Like-named read-outs stand apart in the source and are kept apart here.
How the values were obtained:
[1] = tested on: Salmonella gene expression; assay: RNA-seq transcriptomic response; format: cell-based, Salmonella enterica serovar Typhimurium; settings: 15 min
Protocol: Bacterial overnight cultures were diluted 1:100 in fresh MHB and grown to OD600 0.5. The obtained cultures were diluted to ∼10^6 cfu/ml in non-cation-adjusted MHB. Afterward, the bacterial solution was transferred into low-binding 5 ml tubes (LABsolute) along with the 20× PNA, peptide or PPNA solution. The final concentrations were 5 μM for KFF- and RXR-PNAs, and 10 μM for Tat-PNAs. Equimolar concentrations were used for the respective peptide control conditions. As a negative control, cells were treated with the respective volume of sterile nuclease-free water, which was used as solvent for the test compounds.
A time kinetic was performed for subsequent northern blot analysis (5, 10, 15 min), in which the reaction was stopped at the indicated time points by using RNAprotect Bacteria (Qiagen). For RNA-seq analyses, adding RNAprotect Bacteria at 15 min post treatment stopped the reactions with the indicated PPNA constructs or the respective peptide. After vortexing for 5 s, the samples were incubated at room temperature for 10 min, followed by cell pelleting at 4°C and 21 100 ×g for 20 min. Pellets were directly used for RNA isolation or stored at –20°C (<2 days) until further processing. RNA was purified from bacterial pellets using isolation protocol #3, as described above (0.5 mg/ml lysozyme, miRNeasy).
DNase treatment, cDNA library preparation and sequencing was conducted at Vertis (Munich, Germany). The RNA samples were first fragmented using ultrasound (4 pulses of 30 s each at 4°C). Then, an oligonucleotide adapter was ligated to the 3′ ends of the RNA molecules. First-strand cDNA synthesis was performed using M-MLV reverse transcriptase and the 3′ adapter as primer. The first-strand cDNA was purified and the 5′ Illumina TruSeq sequencing adapter was ligated to the 3′ end of the antisense cDNA. The resulting cDNA was PCR-amplified to about 10–20 ng/μl using a high fidelity DNA polymerase. The cDNA was purified using the Agencourt AMPure XP kit (Beckman Coulter Genomics) and was analyzed by capillary electrophoresis. For Illumina NextSeq sequencing, the samples were pooled in approximately equimolar amounts. The cDNA pool was sequenced on an Illumina NextSeq 500 system using 75 bp read length.
Reads from the RNA-Seq experiments were trimmed, filtered and mapped against the S. enterica subsp. enterica serovar Typhimurium SL1344 reference genome and the three plasmids pSLT_SL1344, pCol1B9_SL1344 (other name is p2), and pRSF1010_SL1344 ([19]). BBDuk was applied to trim bases with a Phred quality score of <10, and adapters were removed simultaneously. Reads were then mapped against the reference genome using BBMap (v38.84) and then assigned genomic features, including both coding sequences and annotated sRNAs ([19],[29]) using the featureCounts method of the Subread (2.0.1) package.
All downstream analysis was performed using packages from the R/Bioconductor project. The raw read counts were imported and analyzed with edgeR (v3.30.0). Each set of PNA-peptide conjugate experiments (i.e. experiments with KFF, RXR and Tat peptide) was analyzed simultaneously. Genes with less than 14.6 counts per million (CPM) in at least three libraries were filtered. This cutoff value was calculated using 10/L, where L is the library size of the smallest sample (minimum library size) in millions.
Raw read counts were normalized by trimmed mean of M values (TMM) normalization. Differential expression analysis was conducted using edgeR ([31]). Estimation of quasi-likelihood (QL) dispersions was then run with the […] function. Then contrasts between all samples versus the water controls were created as input for the glmQLTest function.
Genes with an absolute fold change >2 and an adjusted P-value (Benjamini–Hochberg, ([32])) <0.001 were considered differentially expressed.

[2] = tested on: wild-type Salmonella enterica serovar Typhimurium strain LT2; assay: MIC determination by broth microdilution; format: cell-based; settings: Table 3; ∼10^5 cfu/ml; three biological replicates
Protocol: (§1) MIC values were determined by broth microdilution according to standard protocols with a few modifications ([26]). An overnight bacterial cell culture, supplemented with the appropriate antibiotic when needed, was diluted 1:100 in fresh MHB and grown to OD600 0.5. The obtained culture was diluted to ∼10^5 cfu/ml or 10^6 cfu/ml, as indicated, in non-cation-adjusted MHB. Subsequently, 190 μl bacterial solution was dispensed into a 96-well plate (Thermo Fisher Scientific) along with 10 μl of a 20x PPNA, PNA or peptide working solution. Growth was monitored by measuring the OD at 600 nm every 20 min in a Synergy H1 plate reader (Biotek) with continuous double-orbital shaking (237 cpm) at 37°C for 24 h.
(§2) Fig. S5. Growth k inetics for MIC determ ination of 10^5 cfu/m l Salmonella wt (LT 2) and its isogenic
(§3) Pho PC m utant in the presen ce of var ying co ncentra tio n s of the in dicat ed co njugat e s. ( A) KFF-acpP,
(§4) KFF-acpP-scram bled (scr) or KFF peptide in s erial dilutions from 10 µM to 0.3 µM. ( B) RXR- acpP,
(§5) RXR- acpP-scram bled (scr) or RXR peptide in serial dilutions from 10 µM to 0.3 µ M. ( C) T at-acpP,
(§6) T at-acpP-scram bled (scr) or T at peptide in serial dilutions from 20 µM to 0.6 µM. Data represent
(§7) the average of three biological replicates, error bars indicate standard error of the m ean (SEM).
(§8) (1 picture or pasted object on this page, not shown here)

SL1344 ΔphoP = assay: MIC determination by broth microdilution; format: cell-based, Salmonella enterica serovar Typhimurium; settings: Table 3; ∼10^5 cfu/ml; three biological replicates
Protocol: as §1
Fig. S4. Growth kinetics for MIC determ ination of 10^5 cfu/m l Salmonella wt (SL1344) and its isogenic ∆phoP m utant in the pres ence of var ying concentrations of the indicated conjugates. ( A) KFF-acpP, KFF-acpP-scram bled (scr) or KFF peptide in serial dilutions from 10 µM to 0.3 µM. ( B) RXR- acpP, RXR-acpP-scram bled (scr) or RXR peptide in seria l d ilutions f rom 10 µM to 0. 3 µM. ( C) T at-acpP, T at-acpP-scrambled (scr) or T at peptide in serial dilutions from 20 µM to 0.6 µM. D ata represent the average of three biological replicates, error bars indicate standard er ror of the m ean […]
as §8

[3] = tested on: wild-type (wt) Salmonella enterica serovar Typhimurium strain SL1344; settings: non-cation-adjusted MHB, 37°C, 24 h
Protocol: as §1

LT2 PhoP^C = assay: MIC determination by broth microdilution; format: cell-based, Salmonella enterica serovar Typhimurium; settings: Table 3; ∼10^5 cfu/ml; three biological replicates
Protocol: as §1, §2, §3, §4, §5, §6, §7, §8

[4] = RNA-seq, 5 μM, listed as RXR-acpP-scrambled
[5] = edgeR, versus water, 5 μM RXR-constructs, 10 μM Tat-constructs, triplicates, listed as PNARXRscr

In the case of “RXRRXRRXRRXRXB [RXR-acpP-scr, RXR peptide conjugated to scrambled control PNA]”, the “number of downregulated sRNAs, apart from the induction of AmgR” value [1, 4] is reported as “three”, the “upregulation of mig-14” value [1, 4] is reported as 1.92 fold and the “logFC yfiA” value ([1]; edgeR, versus water, 5 μM KFF-/RXR-constructs, 10 μM Tat-constructs, triplicates) is reported as 1.5255. The “logFC SL1344_0066A” value [1, 5] was 4.581, the “logFC SL1344_2742” value [1, 5] was 3.203 and the “logFC mgtA” value [1, 5] was 1.779. The “logFC yihO” value ([1]; edgeR, versus water, 5 μM, triplicates) was 3.308, the “MIC in μM, LT2 wt” value [2] was 10 µM and the “MIC in μM, SL1344 ΔphoP” value (SL1344 ΔphoP) was 5 µM. The “MIC” value ([3]; Table 1, ∼10^5 cfu/ml, lowest concentration with OD600 < 0.1) was greater than 10 µM, the “MIC” value ([3]; Table 2, ∼10^6 cfu/ml, performed three times) was greater than 10 µM and the “MIC in μM, LT2 PhoP^C” value (LT2 PhoP^C) was greater than 10 µM.
